Some test systems named below: HCC-2998 colon; SK-OV-3 ovarian; SF-268 CNS; MDA-MB-435; CCRF-CEM leukemia; NCI-H522 lung; OVCAR-3 ovarian; SR leukemia; A498 renal; LOX IMVI melanoma.
Experiment in all cases: growth of human tumour cells (NCI), 48 h

In PubChem BioAssay (NCI) one finds TGI and GI50 data, which are given here for 15 compounds.

Several values for one entry are separate records, joined by “and”; a condition that tells them apart may be missing. Equal values may be shown once.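 96-well plates; 48 h exposure; 5 concentrations. Endpoints by linear interpolation between flanking doses. Not reached: highest tested concentration assigned. Here, GI50 denotes the concentration required for 50% inhibition of growth. TGI marks complete inhibition of growth.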

Consider `CCOC(=O)c1c(-c2ccccc2)c(-c2ccccc2)cn1C`, for which the TGI with HCC-2998 colon, with SK-OV-3 ovarian, in the assay on SF-268 CNS, in the assay with MDA-MB-435, with CCRF-CEM leukemia and in the assay on NCI-H522 lung was more than 10 µM each time. Besides, the TGI in the assay with OVCAR-3 ovarian and with SR leukemia was more than 10 µM throughout.
As for `CCC1=CC2CN3Cn4c(c(COCc5c6n(c7ccccc57)CN5CC7C=C(CC)C5C6(C(=O)OC)C7)c5ccccc54)C(C(=O)OC)(C2)C13`, the TGI in the assay on SK-OV-3 ovarian, with SF-268 CNS, in the assay with CCRF-CEM leukemia, with A498 renal, in the assay on NCI-H522 lung and in the assay on LOX IMVI melanoma was more than 100 µM throughout. Besides, the TGI with OVCAR-3 ovarian and in the assay on SR leukemia was more than 100 µM throughout.
With `CC(C)=CCC/C(C)=C/COC(C)(C)C1=CCC(C)CC1` (stereo not given) (tested in a mixture with another compound), the TGI in the assay on HCC-2998 colon, with SK-OV-3 ovarian, in the assay with SF-268 CNS, in the assay with MDA-MB-435, with A498 renal and with NCI-H522 lung was more than 100 µM throughout. In addition, the values for the TGI in the assay with OVCAR-3 ovarian and in the assay on SR leukemia were more than 100 µM and 36.1 µM, respectively.
`CSC(=Nc1ccccc1)N(c1ccccc1)c1nc(=[N+](C)C)ss1`: the TGI was found to be 20.7 µM with HCC-2998 colon; 38.5 µM in the assay with SK-OV-3 ovarian; 21.6 µM in the assay with SF-268 CNS; 4.48 µM in the assay with CCRF-CEM leukemia; 27.9 µM with A498 renal; 1.72 µM with NCI-H522 lung. Also, the figures for the TGI with LOX IMVI melanoma, in the assay on OVCAR-3 ovarian and in the assay on SR leukemia were 12.7 µM, 4.83 µM and 8.01 µM, respectively.
With `Clc1ccc(CSCCc2ccncc2)cc1Cl`, the TGI was 34.2 µM in the assay on HCC-2998 colon; 59.4 µM in the assay with SK-OV-3 ovarian; 49.5 µM with SF-268 CNS; 49.5 µM with MDA-MB-435; 44.7 µM in the assay on CCRF-CEM leukemia; 26 µM with A498 renal. The TGI in the assay with NCI-H522 lung is 33.8 µM; in the assay with OVCAR-3 ovarian it was 33.1 µM.
As to `Nc1ccc(-c2nc3ccccc3s2)cc1C(F)(F)F`, the GI50 with HCC-2998 colon is 10.6 µM. Also, the TGI with HCC-2998 colon turned out to be 22.4 µM; in the assay with SK-OV-3 ovarian it was 30.4 µM; in the assay on SF-268 CNS it was 30.4 µM; in the assay with MDA-MB-435, 30.2 µM; in the assay on CCRF-CEM leukemia, 95 µM; in the assay with A498 renal, 31.4 µM. Moreover, the TGI in the assay with NCI-H522 lung is 31.6 µM; with LOX IMVI melanoma, 32.4 µM; in the assay with OVCAR-3 ovarian, 30.2 µM.
For the compound `CC1(C)C2CC(=O)C1(C)C(O)C2Br` (stereo not given), the TGI in the assay with HCC-2998 colon, in the assay on SK-OV-3 ovarian, with SF-268 CNS, in the assay with MDA-MB-435, in the assay on CCRF-CEM leukemia and in the assay on A498 renal was more than 100 µM in each case. Besides, the TGI in the assay with OVCAR-3 ovarian was more than 100 µM.
Turning to `NC(CC1=CS(=O)(=O)c2ccc(Cl)cc21)C(=O)O` (stereo not given), the TGI in the assay with SK-OV-3 ovarian, in the assay with SF-268 CNS, in the assay on MDA-MB-435, with A498 renal, in the assay with NCI-H522 lung and in the assay with LOX IMVI melanoma was more than 100 µM each time. Besides, the TGI in the assay with OVCAR-3 ovarian and in the assay with SR leukemia was more than 100 µM in each case.
Take `O=C(NC(COC(=O)C(Cc1ccccc1)NC(=O)c1ccccc1)Cc1ccccc1)c1ccccc1` (stereo not given): the TGI in the assay with HCC-2998 colon, with SK-OV-3 ovarian, in the assay on SF-268 CNS, in the assay on MDA-MB-435, in the assay with A498 renal and with NCI-H522 lung was more than 50 µM each time. Besides, the TGI with OVCAR-3 ovarian and with SR leukemia was more than 50 µM in each case.
For `COc1cc2c(cc1OC)[C@H]1CN3CCC[C@H]3C=C1c1ccc(OC)c(O)c1-2`, the TGI is 0.0149 µM and 0.0736 µM in the assay on HCC-2998 colon; 0.000342 µM in the assay with SK-OV-3 ovarian; 0.0269 µM with MDA-MB-435; 0.0376 µM and 0.35 µM in the assay with CCRF-CEM leukemia; 0.000856 µM with NCI-H522 lung; 0.000604 µM in the assay on LOX IMVI melanoma. The compound further registered a TGI with SR leukemia of 0.00437 µM.
With `C[C@]12CC[C@@H]3c4ccc(O)cc4CC[C@H]3[C@@H]1C/C(=C\c1ccncc1)[C@@H]2O`, the TGI with HCC-2998 colon was 53 µM; in the assay on SK-OV-3 ovarian it was more than 100 µM; in the assay with SF-268 CNS, 55.5 µM; with MDA-MB-435, more than 100 µM; in the assay with CCRF-CEM leukemia it was more than 100 µM; in the assay with A498 renal, 17.7 µM. Also, the TGI was determined as 20.1 µM in the assay with NCI-H522 lung and 30.9 µM in the assay on OVCAR-3 ovarian.
`Oc1[nH]c2ccc(Br)cc2c1N=NC(=S)Nc1ccc(F)cc1`: the TGI with SK-OV-3 ovarian was determined as 33.4 µM; in the assay on SF-268 CNS, 35.7 µM; with MDA-MB-435, 13.6 µM; in the assay with A498 renal, 8.76 µM; in the assay on NCI-H522 lung it was 38 µM; in the assay on LOX IMVI melanoma it was 27.1 µM. For the same compound, the TGI was 29 µM in the assay on OVCAR-3 ovarian and 12.2 µM in the assay on SR leukemia.
`C(=Nc1ccc(-c2nc3ccccc3o2)cc1)c1ccco1`: the TGI with MDA-MB-435 is more than 100 µM; in the assay on A498 renal, 95 µM; in the assay on NCI-H522 lung it was more than 100 µM; with LOX IMVI melanoma, more than 100 µM; in the assay with SR leukemia, more than 100 µM.
On to `CC(=O)OCC1OC(n2cc(I)c(=O)[nH]c2=O)C(OC(C)=O)C(OC(C)=O)C1OC(C)=O` (stereo not given), for which the TGI with HCC-2998 colon, in the assay with SK-OV-3 ovarian, in the assay on SF-268 CNS, in the assay with CCRF-CEM leukemia, in the assay with A498 renal and in the assay on NCI-H522 lung was more than 100 µM throughout. Besides, the TGI in the assay with LOX IMVI melanoma, in the assay on OVCAR-3 ovarian and in the assay on SR leukemia was more than 100 µM each time.
Turning to `C[C@@H]1S[C@H](c2ccccc2F)N2Cc3ccccc3N=C12`, the TGI was 40.9 µM in the assay with HCC-2998 colon; 85.1 µM with SK-OV-3 ovarian; more than 100 µM in the assay on SF-268 CNS; 88.5 µM in the assay with MDA-MB-435; more than 100 µM in the assay with CCRF-CEM leukemia; 51.6 µM in the assay on NCI-H522 lung. Moreover, the TGI in the assay with LOX IMVI melanoma is 38.1 µM; in the assay with OVCAR-3 ovarian, more than 100 µM; with SR leukemia, 36.9 µM.
